In test [1] the target is DNA-dependent protein kinase catalytic subunit (Homo sapiens, UniProt P78527). In words: DNA-PK Enzyme-Linked Immunosorbent Assay. The protocol: On day one, a 96-well plate (ThermoFisher, Cat #: 442404) was coated with GST-p53 (1-101) peptide (purified by Pharmaron, BCS department) by diluting 3 μg of GST-p53 in each well with 0.1 M Na2CO3/NaHCO3 (pH 9.6). The plate was incubated overnight at 4° C. On the second day, the coating buffer was removed, and the plate was washed twice with PBST (1×PBS containing 0.1% Tween-20). The DNA-PK enzyme solution (Invitrogen, #PR9107A; the final DNA-PK concentration: 0.1 μg/mL) was then added. The compounds were serially diluted to the final maximal concentration of 100 nM (3 fold series dilution, a total of 10 doses), and an ATP solution (the final ATP concentration: 20 μM) was added to the plate. Incubate the plate at 25° C. for 1 hour. The plate was washed three times with PBST (1×PBS containing 0.1% Tween-20) and blocked with a solution of PBST and 1% BSA at 4° C. overnight. The third day, the plate was washed four times with PBST (1×PBS containing 0.1% Tween-20). Anti-phospho-p53 primary antibody (cell signaling Technology, #9286, Phospho-p53 (Ser15) (16G8) Mouse mAb) (1/1000) was added to each well. The plate was sealed, incubated 1 h at 37° C., and washed four times with PBST (1×PBS containing 0.1% Tween-20). An HRP-linked secondary antibody (Cell signaling Technology, #7076, Anti-mouse IgG, HRP-linked Antibody) (1/1000) (100 μL) was added to each well. […]

For test [2], the target named is Phosphatidylinositol 4,5-bisphosphate 3-kinase catalytic subunit alpha isoform (Homo sapiens, UniProt P42336). In words: PI3Kα and PI3Kδ Biochemical Assay. How it is done: (§1) PI3Kα and PI3Kδ Kinase reactions were performed in a 5 μL volume in low-volume 384-well plates. Typically, PerkinElmer model 6008280 plates were used. The 1× kinase reaction buffer consisted of 50 mM HEPES pH 7.5, 3 mM MgCl2, 0.03% CHAPS, 1 mM EGTA, 100 mM NaCl, and 2 mM DTT. PI3Kα (ThermoFisher, #PV4788; the final PI3Kα concentration: 120 ng/mL) or PI3Kδ enzyme solution (ThermoFisher, #PV6451; the final PI3Kδ concentration: 250 ng/mL) was added to the plate, compounds were serially diluted to the final maximal concentration of 100 nM (3 fold series dilution, a total of 10 doses), and the PIP2:3PS (the final concentration: 10 μg/mL) and ATP solution (the final ATP concentration: 10 μM) was added to the 384-well plate. The plate was incubated at 25° C. for 1 hour. ADP-Glo reagent buffer (5 μL) was added to each well. The plate was sealed and incubated for 40 min at 25° C. ADP-Glo detection buffer (10 μL) was added to each well, and the plate was incubated for 40 min at 25° C. and read on a plate reader configured for Luminescence.

Test [3] has as its target T1, Phosphatidylinositol 4,5-bisphosphate 3-kinase catalytic subunit delta isoform (Homo sapiens, UniProt O00329).
T1 sequence (O00329 whole entry): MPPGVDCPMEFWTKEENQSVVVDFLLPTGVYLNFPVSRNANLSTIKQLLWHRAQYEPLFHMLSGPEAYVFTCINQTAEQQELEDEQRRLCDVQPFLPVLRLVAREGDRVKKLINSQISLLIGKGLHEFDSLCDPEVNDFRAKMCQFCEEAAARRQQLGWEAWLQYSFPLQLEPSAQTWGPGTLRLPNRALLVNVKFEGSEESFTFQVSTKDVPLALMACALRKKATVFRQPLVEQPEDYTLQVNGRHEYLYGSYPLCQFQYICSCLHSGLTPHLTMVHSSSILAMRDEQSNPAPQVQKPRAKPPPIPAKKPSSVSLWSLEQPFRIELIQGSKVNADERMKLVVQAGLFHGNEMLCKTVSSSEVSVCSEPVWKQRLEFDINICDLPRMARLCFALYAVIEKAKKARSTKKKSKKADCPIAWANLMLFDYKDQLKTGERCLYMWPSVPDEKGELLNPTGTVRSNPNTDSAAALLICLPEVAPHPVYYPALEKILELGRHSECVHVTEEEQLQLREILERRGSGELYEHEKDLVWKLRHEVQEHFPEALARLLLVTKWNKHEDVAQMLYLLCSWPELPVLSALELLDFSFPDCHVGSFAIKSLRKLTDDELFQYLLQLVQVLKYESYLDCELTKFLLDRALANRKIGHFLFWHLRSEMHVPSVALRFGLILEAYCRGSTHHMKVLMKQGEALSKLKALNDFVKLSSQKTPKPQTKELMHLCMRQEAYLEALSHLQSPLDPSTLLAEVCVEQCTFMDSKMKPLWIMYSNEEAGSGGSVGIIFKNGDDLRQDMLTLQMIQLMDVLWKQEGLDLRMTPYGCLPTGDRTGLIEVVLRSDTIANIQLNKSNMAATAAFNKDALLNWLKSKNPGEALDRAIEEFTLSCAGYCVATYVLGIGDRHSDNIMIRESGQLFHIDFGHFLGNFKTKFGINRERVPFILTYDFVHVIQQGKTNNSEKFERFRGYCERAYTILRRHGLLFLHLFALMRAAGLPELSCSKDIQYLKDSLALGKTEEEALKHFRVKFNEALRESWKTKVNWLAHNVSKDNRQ
In words: PI3Kα and PI3Kδ Biochemical Assay. How it is done: as §1

pIC50: −log10 of the molar value.

Chain of Phosphatidylinositol 4,5-bisphosphate 3-kinase catalytic subunit alpha isoform (P42336 whole entry, canonical isoform): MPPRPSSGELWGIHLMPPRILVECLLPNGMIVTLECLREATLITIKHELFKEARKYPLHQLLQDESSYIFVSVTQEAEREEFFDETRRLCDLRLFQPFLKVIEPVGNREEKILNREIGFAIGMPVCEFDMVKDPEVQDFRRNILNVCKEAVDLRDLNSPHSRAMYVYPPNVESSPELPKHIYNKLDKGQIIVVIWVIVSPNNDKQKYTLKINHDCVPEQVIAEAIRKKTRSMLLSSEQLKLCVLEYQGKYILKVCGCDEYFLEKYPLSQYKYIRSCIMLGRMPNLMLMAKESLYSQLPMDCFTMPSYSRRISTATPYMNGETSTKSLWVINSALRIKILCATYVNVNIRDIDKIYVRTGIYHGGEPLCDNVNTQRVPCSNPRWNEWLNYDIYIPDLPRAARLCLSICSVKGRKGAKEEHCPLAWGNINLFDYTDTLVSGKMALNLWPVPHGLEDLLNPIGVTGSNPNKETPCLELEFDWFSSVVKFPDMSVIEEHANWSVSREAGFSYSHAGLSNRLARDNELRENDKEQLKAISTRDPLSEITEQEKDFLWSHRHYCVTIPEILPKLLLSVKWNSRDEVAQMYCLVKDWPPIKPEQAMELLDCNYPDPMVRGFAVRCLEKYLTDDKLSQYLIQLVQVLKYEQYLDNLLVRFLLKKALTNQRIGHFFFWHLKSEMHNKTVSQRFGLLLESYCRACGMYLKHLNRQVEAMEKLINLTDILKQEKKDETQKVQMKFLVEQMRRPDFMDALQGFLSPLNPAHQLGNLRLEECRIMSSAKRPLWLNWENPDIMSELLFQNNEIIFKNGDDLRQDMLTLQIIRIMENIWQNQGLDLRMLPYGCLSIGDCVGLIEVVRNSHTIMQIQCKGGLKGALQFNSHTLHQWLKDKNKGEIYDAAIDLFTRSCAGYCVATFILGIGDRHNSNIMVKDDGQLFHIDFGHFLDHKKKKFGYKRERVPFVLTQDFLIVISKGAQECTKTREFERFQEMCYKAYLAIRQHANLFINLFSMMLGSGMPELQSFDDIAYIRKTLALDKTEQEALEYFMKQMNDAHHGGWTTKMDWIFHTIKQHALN
Chain of DNA-dependent protein kinase catalytic subunit (P78527 whole entry): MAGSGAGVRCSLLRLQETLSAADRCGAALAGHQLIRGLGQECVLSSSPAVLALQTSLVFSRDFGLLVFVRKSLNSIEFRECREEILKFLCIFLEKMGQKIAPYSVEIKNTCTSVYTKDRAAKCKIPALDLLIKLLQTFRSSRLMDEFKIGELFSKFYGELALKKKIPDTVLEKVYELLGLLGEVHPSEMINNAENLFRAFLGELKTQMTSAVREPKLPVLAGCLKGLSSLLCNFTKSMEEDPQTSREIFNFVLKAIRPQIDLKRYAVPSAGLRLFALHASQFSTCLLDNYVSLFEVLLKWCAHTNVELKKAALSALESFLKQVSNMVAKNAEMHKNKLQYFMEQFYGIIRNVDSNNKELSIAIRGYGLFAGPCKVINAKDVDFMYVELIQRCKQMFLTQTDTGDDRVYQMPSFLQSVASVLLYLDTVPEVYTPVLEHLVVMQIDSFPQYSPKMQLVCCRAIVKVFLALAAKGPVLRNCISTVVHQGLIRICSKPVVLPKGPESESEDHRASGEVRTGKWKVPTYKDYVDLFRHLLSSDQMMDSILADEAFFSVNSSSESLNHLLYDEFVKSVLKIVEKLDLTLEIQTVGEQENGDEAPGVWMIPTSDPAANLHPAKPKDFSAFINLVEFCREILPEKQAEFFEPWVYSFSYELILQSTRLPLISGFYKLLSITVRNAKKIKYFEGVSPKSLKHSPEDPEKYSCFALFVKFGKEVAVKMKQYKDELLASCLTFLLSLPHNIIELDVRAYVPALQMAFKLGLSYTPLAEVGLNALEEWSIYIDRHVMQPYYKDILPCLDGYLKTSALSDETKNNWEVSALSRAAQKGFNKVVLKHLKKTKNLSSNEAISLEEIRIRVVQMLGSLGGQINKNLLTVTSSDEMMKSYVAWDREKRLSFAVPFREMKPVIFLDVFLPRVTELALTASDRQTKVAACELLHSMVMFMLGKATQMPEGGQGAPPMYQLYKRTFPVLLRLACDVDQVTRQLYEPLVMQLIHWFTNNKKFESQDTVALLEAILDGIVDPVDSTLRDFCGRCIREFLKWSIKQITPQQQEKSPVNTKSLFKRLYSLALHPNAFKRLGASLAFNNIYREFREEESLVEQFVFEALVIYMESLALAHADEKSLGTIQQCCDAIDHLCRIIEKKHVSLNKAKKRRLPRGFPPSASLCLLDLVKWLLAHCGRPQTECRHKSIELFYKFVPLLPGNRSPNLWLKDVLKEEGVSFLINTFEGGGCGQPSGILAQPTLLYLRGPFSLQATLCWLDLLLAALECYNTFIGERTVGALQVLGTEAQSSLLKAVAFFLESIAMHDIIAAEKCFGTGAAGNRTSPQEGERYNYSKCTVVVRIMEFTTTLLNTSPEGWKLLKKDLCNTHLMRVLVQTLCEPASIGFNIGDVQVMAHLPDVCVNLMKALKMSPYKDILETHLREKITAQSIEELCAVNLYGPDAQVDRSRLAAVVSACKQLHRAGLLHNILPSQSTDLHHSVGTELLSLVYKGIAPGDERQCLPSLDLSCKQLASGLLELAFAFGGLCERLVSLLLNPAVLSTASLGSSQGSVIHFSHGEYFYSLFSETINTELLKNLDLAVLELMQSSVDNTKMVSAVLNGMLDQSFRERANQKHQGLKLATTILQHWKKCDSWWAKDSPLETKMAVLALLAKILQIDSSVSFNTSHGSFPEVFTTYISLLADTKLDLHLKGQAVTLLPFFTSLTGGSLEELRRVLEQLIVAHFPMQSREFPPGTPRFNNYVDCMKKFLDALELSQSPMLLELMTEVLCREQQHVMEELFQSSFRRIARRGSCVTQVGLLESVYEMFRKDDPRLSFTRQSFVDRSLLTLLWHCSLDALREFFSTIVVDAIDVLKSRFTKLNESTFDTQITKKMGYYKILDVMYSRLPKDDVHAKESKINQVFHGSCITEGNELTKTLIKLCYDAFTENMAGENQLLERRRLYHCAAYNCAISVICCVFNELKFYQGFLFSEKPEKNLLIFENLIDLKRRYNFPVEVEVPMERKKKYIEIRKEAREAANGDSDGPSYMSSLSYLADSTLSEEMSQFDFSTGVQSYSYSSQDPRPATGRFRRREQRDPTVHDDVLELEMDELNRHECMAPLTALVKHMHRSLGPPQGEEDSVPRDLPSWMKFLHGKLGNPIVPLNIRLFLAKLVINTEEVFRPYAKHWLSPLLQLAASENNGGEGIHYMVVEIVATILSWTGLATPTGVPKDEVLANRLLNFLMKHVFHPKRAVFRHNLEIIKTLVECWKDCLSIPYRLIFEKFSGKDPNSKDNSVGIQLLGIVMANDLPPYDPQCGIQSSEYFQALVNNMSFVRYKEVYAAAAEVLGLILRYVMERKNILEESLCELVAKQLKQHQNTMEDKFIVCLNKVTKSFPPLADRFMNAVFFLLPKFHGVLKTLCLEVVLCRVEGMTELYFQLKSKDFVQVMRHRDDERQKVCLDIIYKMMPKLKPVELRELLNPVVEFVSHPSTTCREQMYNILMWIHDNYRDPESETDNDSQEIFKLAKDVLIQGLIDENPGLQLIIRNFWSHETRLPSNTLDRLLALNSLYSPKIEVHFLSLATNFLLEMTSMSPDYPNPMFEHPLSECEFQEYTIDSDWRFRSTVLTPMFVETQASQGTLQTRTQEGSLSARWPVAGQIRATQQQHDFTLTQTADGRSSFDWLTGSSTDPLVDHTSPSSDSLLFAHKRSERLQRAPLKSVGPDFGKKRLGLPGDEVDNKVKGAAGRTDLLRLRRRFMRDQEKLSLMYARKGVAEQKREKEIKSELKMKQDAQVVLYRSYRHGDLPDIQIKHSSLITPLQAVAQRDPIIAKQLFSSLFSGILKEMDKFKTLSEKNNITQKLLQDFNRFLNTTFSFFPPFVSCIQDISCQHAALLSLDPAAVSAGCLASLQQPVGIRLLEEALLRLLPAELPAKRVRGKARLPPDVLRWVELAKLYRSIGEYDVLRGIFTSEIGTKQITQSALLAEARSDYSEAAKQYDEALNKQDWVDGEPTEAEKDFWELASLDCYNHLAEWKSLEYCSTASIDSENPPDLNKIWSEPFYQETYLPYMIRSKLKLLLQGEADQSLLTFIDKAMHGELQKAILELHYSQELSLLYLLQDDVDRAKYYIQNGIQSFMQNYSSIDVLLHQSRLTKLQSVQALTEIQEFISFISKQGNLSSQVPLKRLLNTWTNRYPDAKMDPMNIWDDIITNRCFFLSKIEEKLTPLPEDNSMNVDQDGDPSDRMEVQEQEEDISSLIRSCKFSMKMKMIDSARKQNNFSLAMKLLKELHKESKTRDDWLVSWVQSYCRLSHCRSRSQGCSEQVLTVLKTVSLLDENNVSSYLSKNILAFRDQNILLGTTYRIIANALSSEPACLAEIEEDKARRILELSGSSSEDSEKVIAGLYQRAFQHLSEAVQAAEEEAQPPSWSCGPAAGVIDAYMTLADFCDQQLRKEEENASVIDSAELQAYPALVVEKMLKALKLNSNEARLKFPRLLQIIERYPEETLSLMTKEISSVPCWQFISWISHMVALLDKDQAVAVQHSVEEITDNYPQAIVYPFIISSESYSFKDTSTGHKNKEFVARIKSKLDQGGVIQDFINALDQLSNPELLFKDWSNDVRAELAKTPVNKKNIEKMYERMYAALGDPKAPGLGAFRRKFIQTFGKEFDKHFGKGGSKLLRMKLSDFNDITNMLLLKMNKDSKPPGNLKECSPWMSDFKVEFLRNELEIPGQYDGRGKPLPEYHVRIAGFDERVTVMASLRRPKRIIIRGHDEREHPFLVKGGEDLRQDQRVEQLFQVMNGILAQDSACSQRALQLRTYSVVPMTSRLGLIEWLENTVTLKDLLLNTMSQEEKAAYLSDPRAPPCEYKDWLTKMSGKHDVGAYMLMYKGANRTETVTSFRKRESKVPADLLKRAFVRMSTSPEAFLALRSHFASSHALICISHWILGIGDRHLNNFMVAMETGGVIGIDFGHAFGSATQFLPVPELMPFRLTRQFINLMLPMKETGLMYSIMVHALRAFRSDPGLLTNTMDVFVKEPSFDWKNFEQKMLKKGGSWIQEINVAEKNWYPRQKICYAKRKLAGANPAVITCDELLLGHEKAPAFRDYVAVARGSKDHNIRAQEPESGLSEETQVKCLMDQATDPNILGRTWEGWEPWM

The pIC50 is the IC50 on a negative log10 scale, so that one unit is a factor of ten. High values mean a small IC50, low ones a large IC50. As for `CC(C)NCCOC1=NCC(C2=CC3C4=C(C=NC3CC2F)N(C)C(=O)C42CCC2)C=C1NS(=O)(=O)C(C)C` (stereo unspecified) [US20250268873, Compound 568], the pIC50 in test [1] is 9.10; in test [2], 7.74; in test [3], 7.27.
Regarding `CCS(=O)(=O)NC1=CC(C2=CC3C4=C(C=NC3CC2F)N(C)C(=O)C42CCC2)CN=C1OCCNC(C)C` (stereo unspecified) [US20250268873, Compound 570], the pIC50 is 9.20 in test [1], 7.68 in test [2] and 7.26 in test [3].
